Test results: patent publication US4540700A, “Treatment of diabetic complications with certain spiro-imidazolidine-diones” (Alcon Laboratories, Inc., priority 1984, dated 1985)

Test system: cataract formation in galactocemic rats
Test: in vivo dose response by intubation (per oral) in galactocemic rats, cataract (vacuole) formation
Set-up: species or system Charles River CD (Sprague-Dawley derived) male rats
Protocol: B. In vivo dose response studies were conducted to test the in vivo activity of the following compounds by intubation (per oral) in galactocemic rats on a 30% galactose diet previously described:
Stock suspensions of the test compounds and all dilutions of the compound were formulated with 0.03% by weight Tween 80.
Healthy, Charles River CD (outbred albino, Sprague-Dawley derived) male rats, aged 20-30 days, without observable ocular defects and ranging in weight from 35-45 grams, were acclimated to experimental conditions (in quarantine) for two days prior to beginning the study.
Rats were individually assigned to one of twenty-three groups according to a random number schedule. Two rats, belonging to the same drug-diet treatment group, were housed per cage. Treatment and control groups consisted of six (6) rats each with no replacement in the event of death, and were designated as follows:
Lenses of all eyes were examined with a hand-held ophthalmoscope in the early stages of cataract development and a penlight for the stages, snowflake-like, snowflake, and nuclear cataract. Lens grading occurred every day for the first ten study days, and then every other day until study Day 14.
The relative potency determination was made at 7 drug levels over half log dose intervals. The response (percent cataracts formed and/or the time to cataract formation) was plotted against mg/kg and/or moles/kg.
The study was directed to the suppression and/or elimination of the initial stages of cataract development characterized by vacuoles or snowflake-likeopacities only. It was assumed therefore that suppression and/or elimination of vacuoles or lens opacification by the test drugs affects the transport, absorption and/or metabolism of galactose in such a manner as to prevent subsequent osmotic disturbances normally leading to tissue degeneration and advanced cataract. Advanced cataract defined as stages 2-4 of the Sipple classification was assumed to be of secondary importance to the etiology of cataract inhibition.
In the event where cataract stage other than vacuole formed, such as snowflake-like opacities, this cataract was counted similarly as vacuole in percent cataract formation.
This study yielded this expected effect in the control groups.
All animals were fed Purina Laboratory Chow and water, ad libitum, for the two day acclimation period. All drugs were dosed orally by intubation using an animal feeding needle (Popper and Sons), 18 or 20 gauge, attached to a 1 or 3 ml syringe. Once the dosing time schedule was established, the schedule was followed throughout the study to compensate for any diurnal variation.
The animals were kept on a twelve hour day/night cycle. The temperature and humidity were determined each day at the scheduled dosing time of 1:00 p.m.
The animals were weighed every other day and adjustments to dosage amounts to compensate for weight gain were made each day prior to the dose time. All food was routinely withheld from all animal groups for four hours (9:00 a.m.) prior to the drug dose and restored two hours (3:00 p.m.) post-dose. Otherwise sufficient amounts of chow or diet mixture were maintained in the food hopper to allow the animals to eat ad libitum. There were two days of drug dosage with the animals remaining on Purina Laboratory Chow (Days 1 and 2). The 30% galactose diet mixture was introduced to the animals two hours post-dose on Day 3 which constituted Day 1 of the study.
All eyes were examined with a hand-held ophthalmoscope and/or penlight at the times designated in the Experimental Design section.
It has been found in previous studies that dilation of the eye with a mydriactic (i.e. Mydriacyl) is not necessary for accurate grading, due to the semi-transparent nature of the rat iris. In the early stages (i.e., grades -, ±, and +) the lens was observed by reflecting the ophthalmoscope beam off the retina back through the lens and iris. Using this technique, vacuoles appear as dark, almost opaque patches. […]

Compound: O=C1NC(=O)C2(N1)c1cc(F)ccc1-c1ccc(F)cc12 [M, Spiro-[2,7-difluorofluoren-9,4'-imidazolidine]-2',5'-dione]
- Percent of Rat Eyes With at Least Vacuoles Formed (0.126 mg/kg p.o., Day 0): 0%
- Percent of Rat Eyes With at Least Vacuoles Formed (0.126 mg/kg p.o., Day 1): 0%
- Percent of Rat Eyes With at Least Vacuoles Formed (0.126 mg/kg p.o., Day 2): 0%
- Percent of Rat Eyes With at Least Vacuoles Formed (0.126 mg/kg p.o., Day 3): 0%
- Percent of Rat Eyes With at Least Vacuoles Formed (0.126 mg/kg p.o., Day 4): 0%
- Percent of Rat Eyes With at Least Vacuoles Formed (0.126 mg/kg p.o., Day 5): 0%
- Percent of Rat Eyes With at Least Vacuoles Formed (0.126 mg/kg p.o., Day 6): 8%
- Percent of Rat Eyes With at Least Vacuoles Formed (0.126 mg/kg p.o., Day 7): 25%
- Percent of Rat Eyes With at Least Vacuoles Formed (0.126 mg/kg p.o., Day 8): 67%
- Percent of Rat Eyes With at Least Vacuoles Formed (0.126 mg/kg p.o., Day 9): 67%
- Percent of Rat Eyes With at Least Vacuoles Formed (0.126 mg/kg p.o., Day 10): 67%
- Percent of Rat Eyes With at Least Vacuoles Formed (0.126 mg/kg p.o., Day 12): 67%
- Percent of Rat Eyes With at Least Vacuoles Formed (0.126 mg/kg p.o., Day 14): 75%
- Percent of Rat Eyes With at Least Vacuoles Formed (0.4 mg/kg p.o., Day 0): 0%
- Percent of Rat Eyes With at Least Vacuoles Formed (0.4 mg/kg p.o., Day 1): 0%
- Percent of Rat Eyes With at Least Vacuoles Formed (0.4 mg/kg p.o., Day 2): 0%
- Percent of Rat Eyes With at Least Vacuoles Formed (0.4 mg/kg p.o., Day 3): 0%
- Percent of Rat Eyes With at Least Vacuoles Formed (0.4 mg/kg p.o., Day 4): 0%
- Percent of Rat Eyes With at Least Vacuoles Formed (0.4 mg/kg p.o., Day 5): 0%
- Percent of Rat Eyes With at Least Vacuoles Formed (0.4 mg/kg p.o., Day 6): 0%
- Percent of Rat Eyes With at Least Vacuoles Formed (0.4 mg/kg p.o., Day 7): 0%
- Percent of Rat Eyes With at Least Vacuoles Formed (0.4 mg/kg p.o., Day 8): 0%
- Percent of Rat Eyes With at Least Vacuoles Formed (0.4 mg/kg p.o., Day 9): 0%
- Percent of Rat Eyes With at Least Vacuoles Formed (0.4 mg/kg p.o., Day 10): 0%
- Percent of Rat Eyes With at Least Vacuoles Formed (0.4 mg/kg p.o., Day 12): 0%
- Percent of Rat Eyes With at Least Vacuoles Formed (0.4 mg/kg p.o., Day 14): 0%
- Percent of Rat Eyes With at Least Vacuoles Formed (1.26 mg/kg p.o., Day 0): 0%
- Percent of Rat Eyes With at Least Vacuoles Formed (1.26 mg/kg p.o., Day 1): 0%
- Percent of Rat Eyes With at Least Vacuoles Formed (1.26 mg/kg p.o., Day 2): 0%
- Percent of Rat Eyes With at Least Vacuoles Formed (1.26 mg/kg p.o., Day 3): 0%
- Percent of Rat Eyes With at Least Vacuoles Formed (1.26 mg/kg p.o., Day 4): 0%
- Percent of Rat Eyes With at Least Vacuoles Formed (1.26 mg/kg p.o., Day 5): 0%
- Percent of Rat Eyes With at Least Vacuoles Formed (1.26 mg/kg p.o., Day 6): 0.0%
- Percent of Rat Eyes With at Least Vacuoles Formed (1.26 mg/kg p.o., Day 6, listed as 2,7-difluoro): 0%
- Percent of Rat Eyes With at Least Vacuoles Formed (1.26 mg/kg p.o., Day 7): 0%
- Percent of Rat Eyes With at Least Vacuoles Formed (1.26 mg/kg p.o., Day 8): 0%
- Percent of Rat Eyes With at Least Vacuoles Formed (1.26 mg/kg p.o., Day 9): 0%
- Percent of Rat Eyes With at Least Vacuoles Formed (1.26 mg/kg p.o., Day 10): 0%
- Percent of Rat Eyes With at Least Vacuoles Formed (1.26 mg/kg p.o., Day 12): 0%
- Percent of Rat Eyes With at Least Vacuoles Formed (1.26 mg/kg p.o., Day 14): 0%
- Percent of Rat Eyes With at Least Vacuoles Formed (4.0 mg/kg p.o., Day 0): 0%
- Percent of Rat Eyes With at Least Vacuoles Formed (4.0 mg/kg p.o., Day 1): 0%
- Percent of Rat Eyes With at Least Vacuoles Formed (4.0 mg/kg p.o., Day 2): 0%
- Percent of Rat Eyes With at Least Vacuoles Formed (4.0 mg/kg p.o., Day 3): 0%
- Percent of Rat Eyes With at Least Vacuoles Formed (4.0 mg/kg p.o., Day 4): 0%
- Percent of Rat Eyes With at Least Vacuoles Formed (4.0 mg/kg p.o., Day 5): 0%
- Percent of Rat Eyes With at Least Vacuoles Formed (4.0 mg/kg p.o., Day 6): 0.0%
- Percent of Rat Eyes With at Least Vacuoles Formed (4.0 mg/kg p.o., Day 6, listed as 2,7-difluoro): 0%
- Percent of Rat Eyes With at Least Vacuoles Formed (4.0 mg/kg p.o., Day 7): 0.0%
- Percent of Rat Eyes With at Least Vacuoles Formed (4.0 mg/kg p.o., Day 7, listed as 2,7-difluoro): 0%
- Percent of Rat Eyes With at Least Vacuoles Formed (4.0 mg/kg p.o., Day 8): 0.0%
- Percent of Rat Eyes With at Least Vacuoles Formed (4.0 mg/kg p.o., Day 8, listed as 2,7-difluoro): 0%
